From US20250213547A1, “METHODS OF TREATING NEUROLOGICAL DISEASES” (priority 2022, published 2025)
Like-named read-outs stand apart in the source and are kept apart here.

Key:
[1] = for Avg. CFBL 24HC / Max. CFBL 24HC: Table 34, ELEKTRA patients, steady-state; for Avg. Ch. f. BL. 24HC / Max. Red. f. BL. 24HC: Table 34A, ELEKTRA (TAK-935-2002)
From the text: Other inclusion criteria were body weight ≥10 kg, currently taking a fixed dosage of 1 to 4 antiseizure medications, and failure to remain seizure free after trying at least two antiseizure medications. Convulsive seizures include focal to bilateral tonic-clonic with impaired awareness, hemi-clonic, simultaneous bilateral clonic, and generalized tonic-clonic seizures. Drop seizures can involve the entire body, trunk, or head which leads to falling. […] Approximately 126 patients ages ≥2 and ≤17 years were enrolled in the study. The study included two main phases, a 4-6 week screening and baseline period, and a 20-week treatment period. Patients received doses twice a day in a tablet formulation. The starting dose was adjusted according to the patient's body weight (Table 17).
During the first 8 weeks of treatment patient dosing was a titrated for individual optimization. The remaining 12-weeks of treatment consisted of a maintenance phase. The study began with treating patients ≥9 years of age for one month before treating younger patients. Blood was collected for PK analysis on the first dosage day within one hour of the morning dose, and 30 minutes, and 1, 2, 3, and 4 hours post-dose. Subsequent blood sampling took place before the morning dose and 30 minutes post-dose. Blood samples were obtained at scheduled times for determining PK profile and Tmax, which is the time Cmax was reached. A patient's seizure frequency was recorded before and during the trial to calculate percent change from baseline.
The PK model parameters can be used as a tool to estimate PK and drug exposure in an individual or a population (such as with ELEKTRA), as well as to calculate individualized dosing based on covariates. For example, optimal daily dosing can be calculated using the area under the concentration time curve and clearance values (dose=targetAUC24×CL). Blood sampling at steady-state was limited in the ELEKTRA study, thus some of the PK parameters shown in Table 32 for the ELEKTRA population were simulated by interpolation.
The dots represent the simulation and the numbers below the dot represent the simulated covariate value, while the values above the dots show the percent change from the reference level. The vertical line labeled “ref” depicts the reference level. […] The CV % refers to the coefficient of variation assuming a log-normal distribution, derived as […], where σ denotes the standard deviation of the log-transformed values.
The term AUC(0-tau) stands for AUC to the end of the dosing period. The covariate effects were analyzed using exposure parameters AUC, Cmax, and Ctrough.

[2] = tested on: plasma 24HC; assay: Healthy Japanese subjects, Part 2: plasma 24HC pharmacodynamics; assay type: in vivo, human
Description: TAK-935 or placebo was administered to the 9 subjects at the dose of 100 mg BID from Day 1 to Day 7, then 200 mg BID from Day 8 to Day 14, and finally 300 mg BID from Day 15 to Day 21, and safety, PK and PD were investigated. The planned dose levels of TAK-935 to be evaluated are outlined in Table 40a.
Blood samples for PD analysis of plasma 24HC level were collected into blood collection tubes (vacutainer) containing the anticoagulant K2EDTA.
The PD assessments described below were performed at the time points stipulated in the schedule of procedures. The additional PD endpoints included the following PD parameters for plasma 24HC: […]

[3] = Eq. Dose 100 mg (N = 70), Median
[4] = Eq. Dose 100 mg (N = 70), Range
[5] = Eq. Dose 200 mg (N = 68), Median
[6] = Eq. Dose 200 mg (N = 68), Range
[7] = Eq. Dose 300 mg (N = 56), Median
[8] = Eq. Dose 300 mg (N = 56), Range
[9] = Equiv. Dose 100 mg BID, N = 70, Mean
[10] = Equiv. Dose 100 mg BID, N = 70, Median
[11] = Equiv. Dose 100 mg BID, N = 70, Range
[12] = Equiv. Dose 200 mg BID, N = 68, Mean
[13] = Equiv. Dose 200 mg BID, N = 68, Median
[14] = Equiv. Dose 200 mg BID, N = 68, Range
[15] = Equiv. Dose 300 mg BID, N = 56, Mean
[16] = Equiv. Dose 300 mg BID, N = 56, Median
[17] = Equiv. Dose 300 mg BID, N = 56, Range
[18] = Day 21 after 100 mg BID, 200 mg BID, and 300 mg BID, mean
[19] = multiple doses 100 mg BID, 200 mg BID, and 300 mg BID (Day 21), mean

O=C(c1cccnc1-c1ccncc1)N1CCC(O)(Cc2ccccc2)CC1 [soticlestat]
Avg. CFBL 24HC ([1]; Eq. Dose 100 mg (N = 70), Mean): −69.4% | Max. CFBL 24HC ([1]; Eq. Dose 100 mg (N = 70), Mean): −69.6% | Avg. CFBL 24HC [1, 3]: −70.8% | Max. CFBL 24HC [1, 3]: −71% | Avg. CFBL 24HC [1, 4]: −86.9-−42.2% | Max. CFBL 24HC [1, 4]: −87-−42.6% | Avg. CFBL 24HC ([1]; Eq. Dose 200 mg (N = 68), Mean): −78.6% | Max. CFBL 24HC ([1]; Eq. Dose 200 mg (N = 68), Mean): −78.7% | Avg. CFBL 24HC [1, 5]: −80.7% | Max. CFBL 24HC [1, 5]: −80.8% | Avg. CFBL 24HC [1, 6]: −89.7-−54.7% | Max. CFBL 24HC [1, 6]: −89.8-−55% | Avg. CFBL 24HC ([1]; Eq. Dose 300 mg (N = 56), Mean): −82% | Max. CFBL 24HC ([1]; Eq. Dose 300 mg (N = 56), Mean): −82.1% | Avg. CFBL 24HC [1, 7]: −84% | Max. CFBL 24HC [1, 7]: −84.1% | Avg. CFBL 24HC [1, 8]: −90.9-−64.1% | Max. CFBL 24HC [1, 8]: −90.9-−64.4% | Avg. Ch. f. BL. 24HC [1, 9]: −67.38% | Max. Red. f. BL. 24HC [1, 9]: −67.65% | Avg. Ch. f. BL. 24HC [1, 10]: −70.08% | Max. Red. f. BL. 24HC [1, 10]: −70.39% | Avg. Ch. f. BL. 24HC [1, 11]: −86.70-−10.05% | Max. Red. f. BL. 24HC [1, 11]: −86.77-−10.19% | Avg. Ch. f. BL. 24HC [1, 12]: −76.77% | Max. Red. f. BL. 24HC [1, 12]: −76.97% | Avg. Ch. f. BL. 24HC [1, 13]: −80.21% | Max. Red. f. BL. 24HC [1, 13]: −80.37% | Avg. Ch. f. BL. 24HC [1, 14]: −89.03-−18.58% | Max. Red. f. BL. 24HC [1, 14]: −89.07-−18.80% | Avg. Ch. f. BL. 24HC [1, 15]: −79.95% | Max. Red. f. BL. 24HC [1, 15]: −80.11% | Avg. Ch. f. BL. 24HC [1, 16]: −82.50% | Max. Red. f. BL. 24HC [1, 16]: −82.65% | Avg. Ch. f. BL. 24HC [1, 17]: −89.98-−23.43% | Max. Red. f. BL. 24HC [1, 17]: −90.00-−23.69% | maximum mean decrease of trough plasma 24HC from time-matched baseline ([2]; Day 21, up-titration to 300 mg BID): about 88% | AUEC24 of plasma 24HC [2, 18]: 124.2 ng·h/mL | AVECτ of plasma 24HC (AUEC during a dosing interval) [2, 18]: 61.28 ng·h/mL | E12 of plasma 24HC (observed effect at 12 hours) [2, 18]: 5.443 ng/mL | E24 of plasma 24HC (observed effect at 24 hours) [2, 18]: 5.013 ng/mL | Emax of plasma 24HC [2, 18]: 4.640 ng/mL | Time to Emax of plasma 24HC ([2]; Day 21 after 100 mg BID, 200 mg BID, and 300 mg BID, median): 6.000 h | Emax ([2]; Homo sapiens, 504 h, multiple doses 100 mg BID, 200 mg BID, and 300 mg BID (Day 21), mean, read-out: % change from Baseline in Emax of plasma 24HC): -86.7% | % change from Baseline in AUEC24 of plasma 24HC [2, 19]: −86.75% | % change from Baseline in AUECτ of plasma 24HC [2, 19]: −86.62% | % change from Baseline in E12 of plasma 24HC [2, 19]: −85.83% | % change from Baseline in E24 of plasma 24HC [2, 19]: −87.67%
